Test results taken from ChEMBL document CHEMBL1128631, “Photoinduced electron transfer for pyrenesulfonamide conjugates of tryptophan-containing peptides. Mitigation of fluoroprobe behavior in N-terminal labeling experiments” (Bioorg Med Chem Lett, 1995).

Assays:
Format in all cases: ADME
[1] = Half-life time was measured in the presence of methyl cyanide solvent
[2] = Life-time was measured in the presence of methyl cyanide solvent (t = weighted average of two lifetimes from biexponential decay)
[3] = Life-time was measured in the presence of DMF solvent (t = weighted average of two lifetimes from biexponential decay)

SMILES | T1/2 [1] [us] | t [2] [ns] | t [3] [ns]
CCOC(=O)[C@H](Cc1c[nH]c2ccccc12)NC(=O)[C@H](C)NS(=O)(=O)c1ccc2ccc3ccc([N+](=O)[O-])c4ccc1c2c34 | 0.4 |  | 
CCOC(=O)[C@H](Cc1c[nH]c2ccccc12)NC(=O)[C@H](C)NS(=O)(=O)c1ccc2ccc3cccc4ccc1c2c34 |  | 0.76 | 0.5
CCOC(=O)[C@H](C)NS(=O)(=O)c1ccc2ccc3ccc([N+](=O)[O-])c4ccc1c2c34 | 12 |  | 
CCOC(=O)[C@H](Cc1c[nH]c2ccccc12)NC(=O)[C@H](C)NC(=O)[C@H](C)NS(=O)(=O)c1ccc2ccc3cccc4ccc1c2c34 |  | 3.1 | 1.3
CCOC(=O)[C@H](Cc1c[nH]c2ccccc12)NS(=O)(=O)c1ccc2ccc3cccc4ccc1c2c34 |  | 0.79 | 0.32
CCOC(=O)[C@H](Cc1c[nH]c2ccccc12)NC(=O)[C@H](C)NC(=O)[C@H](C)NS(=O)(=O)c1ccc2ccc3ccc([N+](=O)[O-])c4ccc1c2c34 | 0.16 |  | 
